Data as given in publication PMC6099591, “(2E,5E)-2,5-Bis(3-hydroxy-4-methoxybenzylidene) cyclopentanone Exerts Anti-Melanogenesis and Anti-Wrinkle Activities in B16F10 Melanoma and Hs27 Fibroblast Cells” (Molecules : A Journal of Synthetic Chemistry and Natural …, 2018).
One block for each molecule: values may come before it.

Legend:
[1] = target: Mushroom tyrosinase (EC 1.14.18.1) (Agaricus bisporus, UniProt C7FF04); assay: Kinetic analysis of tyrosinase inhibition (Lineweaver-Burk and Dixon plots); assay type: biochemical; settings: Lineweaver-Burk plot
Source text: Furthermore, the mechanism responsible for tyrosinase inhibition by BHCP was investigated by enzyme kinetic analysis in the present study (Table 1 and Figure 2). Lineweaver–Burk plots were drawn using the data obtained from the kinetic studies, and the inhibition constant (Ki) was obtained from the Dixon plots. The Lineweaver–Burk double reciprocal plots indicated competitive-type inhibition. […] Moreover, intercepts on the x-axis of Dixon plots are commonly used to determine the types of enzyme inhibition constants (Ki) for an enzyme–inhibitor complex, where the value of the x-axis indicates the value of −Ki.
Figure 2 Lineweaver–Burk (a,c) and Dixon (b,d) plots for tyrosinase enzyme inhibition by BHCP. […]
To determine the kinetic mechanisms, two kinetic methods (Lineweaver–Burk and Dixon plots) were complementarily used. For the Lineweaver–Burk double reciprocal plots (a plot of 1/enzyme velocity (1/V) versus 1/substrate concentration (1/[S])), the inhibition type was determined using various concentrations of L-tyrosine (1, 2, and 4 mM) and L-DOPA (0.5, 1, and 2 mM) as substrates in the presence of different concentrations of BHCP. […]

Hs27 fibroblast cells = assay: Cell viability, EZ-Cytox assay, Hs27; assay type: cell-based, human; settings: up to 10 µM, 48 h
Protocol: (§1) Figure 3 Cell viability of BHCP on B16F10 melanoma (a) and Hs27 fibroblast cells (b). Cells were treated with various concentrations (0–10 μM) of BHCP for 24 h and 48 h, respectively, and cell viability was measured by EZ-Cytox assay.
(§2) The viability of cells was assessed using the EZ-Cytox kit assay. In brief, B16F10 cells and Hs27 fibroblasts were seeded into a 96-well plate at a density of 1 × 10^4 cells/well and incubated at 37 °C for 24 h. The cells were fed fresh, serum-free DMEM that contained different concentrations (0, 1, 2, 5, and 10 µM) of BHCP, and incubated for 24 and 48 h. Subsequently, 10 μL of EZ-Cytox solution was loaded into each well and the cells were incubated for 2–4 h. The absorbance measurement of cells in the absence of any treatment was regarded as 100% cell survival. Each treatment was performed in triplicate and each experiment was repeated three times.

B16F10 melanoma cells [2] = assay: Melanin content in α-MSH-induced B16F10 cells; assay type: cell-based, murine; settings: 24 h pretreatment then α-MSH (5 µM) 48 h, α-MSH only control 186%
Protocol: (§3) Figure 4 Inhibition of melanin contents (a) and cellular tyrosinase activity (b) of BHCP on B16F10 melanoma cells. […] Melanin content of the pellet was evaluated at 405 nm (a); intracellular tyrosinase activity was determined with L-DOPA as the substrate, and the absorbance of L-DOPA chrome was read at 492 nm (b). Data are expressed as mean ± S.E.M of three independent experiments. One-way ANOVA was used to determine the significances of differences: ^# p < 0.05 compared to the control group without α-MSH treatment. ** p < 0.01 and * p < 0.05 compared to the α-MSH-treated control group.
The effect of BHCP on α-MSH-induced melanogenesis in B16F10 cells was based on a previously used method with slight modifications. Briefly, B16F10 cells (5 × 10^4 cells/well) in 6-well plates were allowed to grow to 70–80% confluence. […] After treatment, the cells were washed twice with ice-cold PBS, dissolved in 90 µL 1 M NaOH solution including DMSO (5%) at 60 °C for 1 h, and the absorbance was measured at 405 nm with a microplate spectrophotometer (TECAN, Salzburg, Austria). To measure the amount of melanin in the experiment, the rate of inhibition in the treatment groups were calculated from the absorbance of the known concentrations of synthetic melanin, which were corrected to the total amount of protein that was present in the supernatant of the cell lysates. The absorbance of untreated cells was measured in triplicate.

MMP-9 = assay: Western blot, MMP-9 expression in UV-induced Hs27 cells; assay type: cell-based, human; settings: 1 and 10 µM, 24 h, then UV (50 mJ/cm2) 24 h
Protocol: (§4) Figure 7 Effects of BHCP on the expression levels of MMP-1, MMP-9, MMP-12, and MMP-13 in UV-induced Hs27 human fibroblast cells. Cells were preincubated with or without 1 and 10 μM BHCP for 24 h and were stimulated with UV (50 mJ/cm^2) for an additional 24 h. Harvested cells were lysed and then examined for the expression levels of MMP-1, MMP-9, MMP-12, and MMP-13 by Western blotting (a); The protein levels of MMP-1 (b); MMP-9 (c); MMP-12 (d); and MMP-13 (e) were quantitated with CS analyzer software. MMP-1, MMP-9, MMP-12, and MMP-13 protein levels were normalized by β-actin. Data are expressed as mean ± S.E.M. of three independent experiments. ^# p < 0.05 versus untreated control; * p < 0.05 versus UV stimulation.
(§5) Lysate samples were boiled for 10 min in gel-loading buffer (125 mM Tris-HCl, 4% sodium dodecyl sulfate (SDS), 10% 2-mercaptoethanol, and 0.2% bromophenol blue; pH 6.8) at a volume ratio of 1:1. The total protein equivalents for each sample were separated by SDS-polyacrylamide gel electrophoresis (PAGE) using acrylamide gels as based on the procedure described by Laemmli and transferred to PVDF membranes at 80 V for 2 h using the wet-transfer system. […] Antibody labeling was detected by enhanced chemiluminescence in accordance with the manufacturer’s instructions. Protein quantitation was performed using the Davinch-Chemi TM. […]

MMP-1 = assay: Western blot, MMP-1 expression in UV-induced Hs27 cells; assay type: cell-based, human; settings: 1 and 10 µM, 24 h, then UV (50 mJ/cm2) 24 h
Protocol: as §4, §5

[3] = test system: cellular tyrosinase in B16F10 melanoma cells; assay: Cellular tyrosinase activity assay in α-MSH-induced B16F10 cells; assay type: cell-based, murine; settings: 24 h pretreatment then α-MSH (5 µM) 48 h, α-MSH only control 181%
Protocol: as §3
Cellular tyrosinase activity assay was performed by measuring the rate of oxidation of L-DOPA [35]. B16F10 cells at a density of 5 × 10^4/cells were placed in 6-well dishes and incubated overnight. […] The cells were washed with PBS and lysed in a solution containing 100 µL of 50 mM phosphate buffer (pH 6.5), 0.1 mM phenylmethylsulfonylfluoride (PMSF), and 1% Triton X-100. Then, the cells were placed in a deep freezer machine (−80 °C) for 30 min. After defrosting the cells, the cellular extracts were purified by centrifugation at 12,000 rpm for 30 min at 4 °C. A total of 80 µL the supernatant and 20 µL of L-DOPA (2 mg/mL) were added to a 96-well plate, and the absorbance at a wavelength of 492 nm was measured every 10 min during 1 h at 37 °C with an ELISA plate reader (TECAN, Salzburg, Austria).

p-p65 (Ser536) = assay: Western blot, nuclear p-p65 (Ser536) in UV-induced Hs27 cells; assay type: cell-based, human; settings: 1 and 10 µM, 24 h, then UV (50 mJ/cm2) 24 h; normalized to TFIIB
Protocol: (§6) Figure 6 Effects of BHCP on the expression levels of p-p65 (Ser536) in UV-induced Hs27 human fibroblast cells. Cells were preincubated with or without 1 and 10 μM BHCP for 24 h and were stimulated with UV (50 mJ/cm^2) for an additional 24 h. Nuclear protein levels of p-p65 (Ser536) were determined by Western blotting (a); After normalization to TFIIB, relative ratios were quantitated with CS analyzer software (b); Cytosol protein levels of p65 was determined by Western blotting (c); After normalization to β-actin, ratios were quantitated with CS analyzer software (d). Data are expressed as mean ± S.E.M. of three independent experiments. ^# p < 0.05 versus untreated control; * p < 0.05 and ** p < 0.01 versus […].
(§7) The Hs27 cells were washed with ice-cold PBS and harvested. […]
(§8) Lysate samples were boiled for 10 min in gel-loading buffer (125 mM Tris-HCl, 4% sodium dodecyl sulfate (SDS), 10% 2-mercaptoethanol, and 0.2% bromophenol blue; pH 6.8) at a volume ratio of 1:1. […] Antibody labeling was detected by enhanced chemiluminescence in accordance with the manufacturer’s instructions. Protein quantitation was performed using the Davinch-Chemi TM. […]

MMP-12 = assay: Western blot, MMP-12 expression in UV-induced Hs27 cells; assay type: cell-based, human; settings: 1 and 10 µM, 24 h, then UV (50 mJ/cm2) 24 h
Protocol: as §4, §5

B16F10 melanoma cells [4] = assay: Cell viability, EZ-Cytox assay, B16F10; assay type: cell-based, murine; settings: up to 10 µM, 48 h
Protocol: as §1, §2

tyrosinase = assay: Western blot, tyrosinase protein level in α-MSH-stimulated B16F10 cells; assay type: cell-based, murine; settings: 1 and 10 µM, 24 h, then α-MSH (5 µM) 48 h; normalized by β-actin
Protocol: (§9) Figure 5 Effects of BHCP on the expression levels of phosphorylation of CREB, MITF, and tyrosinase in α-MSH-stimulated B16F10 melanoma cells. Cells were preincubated with or without 1 and 10 μM BHCP for 24 h and were stimulated with α-MSH (5 μM) for an additional 48 h. Harvested cells were lysed and then examined for the expression levels of p-CREB, CREB, MITF, and tyrosinase by Western blotting (a); The protein levels of tyrosinase (b); MITF (c); and p-CREB (d) were quantitated with CS analyzer software. Tyrosinase, MITF, and p-CREB protein levels were normalized by β-actin. Data are expressed as mean ± S.E.M. of three independent experiments. ^# p < 0.05 versus untreated control; * p < 0.05 versus α-MSH stimulation.
as §5

p-CREB = assay: Western blot, phosphorylation of CREB in α-MSH-stimulated B16F10 cells; assay type: cell-based, murine; settings: 1 and 10 µM, 24 h, then α-MSH (5 µM) 48 h
Protocol: as §9, §5

p65 = assay: Western blot, cytosol p65 in UV-induced Hs27 cells; assay type: cell-based, human; settings: 1 and 10 µM, 24 h, then UV (50 mJ/cm2) 24 h; normalized to β-actin
Protocol: as §6, §7, §8

MITF = assay: Western blot, MITF protein level in α-MSH-stimulated B16F10 cells; assay type: cell-based, murine; settings: 1 and 10 µM, 24 h, then α-MSH (5 µM) 48 h; normalized by β-actin
Protocol: as §9, §5

MMP-13 = assay: Western blot, MMP-13 expression in UV-induced Hs27 cells; assay type: cell-based, human; settings: 1 and 10 µM, 24 h, then UV (50 mJ/cm2) 24 h
Protocol: as §4, §5

Sequence of Mushroom tyrosinase (EC 1.14.18.1) (G1K3P4 entry or part of it): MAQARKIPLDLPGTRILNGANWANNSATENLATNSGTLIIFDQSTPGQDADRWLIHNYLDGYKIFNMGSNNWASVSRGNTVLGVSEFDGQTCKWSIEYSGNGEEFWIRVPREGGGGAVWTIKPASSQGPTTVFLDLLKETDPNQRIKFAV
Sequence of Mushroom tyrosinase (EC 1.14.18.1) (C7FF04 1-392): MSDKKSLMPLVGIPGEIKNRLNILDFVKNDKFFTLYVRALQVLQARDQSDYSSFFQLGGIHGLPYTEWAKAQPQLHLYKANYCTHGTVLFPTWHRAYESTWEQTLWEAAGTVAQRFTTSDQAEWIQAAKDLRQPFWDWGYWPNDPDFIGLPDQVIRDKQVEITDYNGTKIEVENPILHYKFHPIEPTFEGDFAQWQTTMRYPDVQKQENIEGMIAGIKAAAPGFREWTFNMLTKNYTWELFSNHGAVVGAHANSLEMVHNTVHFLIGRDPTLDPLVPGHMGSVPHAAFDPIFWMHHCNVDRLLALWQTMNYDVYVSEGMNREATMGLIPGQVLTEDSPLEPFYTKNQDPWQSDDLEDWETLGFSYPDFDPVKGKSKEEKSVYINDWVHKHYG

Inhibition Type (L-DOPA) ([1]; substrate L-DOPA): competitive inhibitor | Inhibition Type (L-Tyrosine) ([1]; substrate L-tyrosine): competitive inhibitor
Compound: COc1ccc(/C=C2\CC/C(=C\c3ccc(OC)c(O)c3)C2=O)cc1O [BHCP, (2E,5E)-2,5-bis(3-hydroxy-4-methoxybenzylidene)cyclopentanone]
Cell viability (survival) of Hs27 cells (Hs27 fibroblast cells): did not reduce the survival | Melanin content (B16F10 melanoma cells [2]; 1 µM): 113% | Melanin content (B16F10 melanoma cells [2]; 5 µM): 106% | Melanin content (B16F10 melanoma cells [2]; 10 µM): 102% | MMP-9 expression (MMP-9): decreased expression in a dose-dependent manner | MMP-1 expression (MMP-1): decreased expression in a dose-dependent manner | Cellular tyrosinase activity ([3]; 1 µM): 120% | Cellular tyrosinase activity ([3]; 5 µM): 116% | Cellular tyrosinase activity ([3]; 10 µM): 105% | Nucleus p-p65 (Ser536) protein level (p-p65 (Ser536)): decreased | MMP-12 expression (MMP-12): decreased expression in a dose-dependent manner | Cell viability (survival) of B16F10 cells (B16F10 melanoma cells [4]): did not reduce the survival | Tyrosinase protein level (tyrosinase): decreased these protein levels | Phosphorylation of CREB (p-CREB): significantly suppressed | Total p65 in the cytoplasm (p65): restored | MITF protein level (MITF): decreased these protein levels | MMP-13 expression (MMP-13): decreased expression in a dose-dependent manner

Compound: O=c1cc(CO)occ1O [Kojic acid, reference compound]
Cellular tyrosinase activity [3]: 131%
